ChEMBL document CHEMBL5154860 (J Med Chem, 2022)

Columns and labels:
[1] = in vivo; conditions: Sprague-Dawley, rat, brain / plasma, iv, 0.2 mg/kg
[2] = in vivo; conditions: Sprague-Dawley, rat, brain / plasma, iv, 0.2 mg/kg; remark: listed apart in the source
[3] = in vitro; conditions: human, liver microsomes
[4] = in vivo; conditions: Sprague-Dawley, rat, iv, 1 mg/kg
[5] = in vivo; conditions: Sprague-Dawley, rat, iv, 1 mg/kg; remark: listed apart in the source
[6] = in vivo; conditions: Sprague-Dawley, rat, iv, 1 mg/kg; remark: listed apart in the source
[7] = in vivo; conditions: Sprague-Dawley, rat, iv, 1 mg/kg; remark: listed apart in the source
[8] = in vivo; conditions: Sprague-Dawley, rat, iv, 1 mg/kg; remark: listed apart in the source
[9] = in vivo; conditions: Sprague-Dawley, rat, po, 10 mg/kg
[10] = in vivo; conditions: Sprague-Dawley, rat, po, 10 mg/kg; remark: listed apart in the source
[11] = in vivo; conditions: Sprague-Dawley, rat, po, 10 mg/kg; remark: listed apart in the source
[12] = in vivo; conditions: Sprague-Dawley, rat, po, 10 mg/kg; remark: listed apart in the source
[13] = in vitro; conditions: Sprague-Dawley, rat, liver microsomes
[14] = in vitro; conditions: dog, MDCK-MDR1

SMILES	Kp [1]	Kp uu [2]	other results
Cn1ccnc1SCC1CCN(S(=O)(=O)c2ccc3ncsc3c2)CC1	< 0.48	< 0.5	
Cn1ccnc1SCC1CCN(S(=O)(=O)c2ccc3c(c2)CCO3)CC1	0.08	0.11	CLint scaled at […], 1 µM [3]: 1270 mL/min/kg
O=S(=O)(c1ccc2c(c1)CCO2)N1CCC(CSc2nccs2)CC1	0.27	0.23	
Cc1cn(C)c(SCC2CCN(S(=O)(=O)c3ccc4c(c3)CCO4)CC2)n1	0.07	0.19	
Cc1nc(SCC2CCN(S(=O)(=O)c3ccc4c(c3)CCO4)CC2)n(C)c1C	0.22	0.32	
Cn1ccnc1SCC1CCN(S(=O)(=O)c2ccc3c(c2)OCO3)CC1	0.53	1.88	
Cn1ccnc1SC[C@H]1CCN(S(=O)(=O)c2ccc3c(c2)CCO3)C[C@@H]1F			half-life at 24 h [4]: 14.6 h; MRT at 24 h [5]: 10.7 h; clearance at 24 h [6]: 56.5 mL/min/kg; Vd at 24 h [7]: 36.6 L/kg; AUC at 24 h [8]: 301 ng·h/mL; Cmax at 24 h [9]: 433 ng/mL; Tmax at 24 h [10]: 0.25 h; AUC at 24 h [11]: 830 ng·h/mL; bioavailability at 24 h [12]: 27.6%; CLint scaled at […], 1 µM [13]: 1770 mL/min/kg; CLint scaled at […], 1 µM [3]: 318 mL/min/kg; Papp [14]: 26.8 ×10⁻⁶ cm/s
Cc1nnc(SCC2CCN(S(=O)(=O)c3ccc4c(c3)CCO4)CC2)s1	1.25	1.1	
CC(Sc1nccn1C)C1CCN(S(=O)(=O)c2ccc3c(c2)CCO3)CC1 (centres undefined)	0.22	0.29	
